# Assays:
# Format in all cases: functional
# Serratia marcescens [1] = test: Antibacterial activity against Serratia marcescens by CLSI M7-A7 method
# [2] = tested on: Acinetobacter calcoaceticus; test: Antibacterial activity against Acinetobacter calcoaceticus by CLSI M7-A7 method
# Klebsiella pneumoniae [3] = test: Antibacterial activity against Klebsiella pneumoniae by CLSI M7-A7 method
# Acinetobacter baumannii [4] = test: Antibacterial activity against Acinetobacter baumannii assessed as percent susceptible isolates by CLSI M7-A7 method
# Pseudomonas aeruginosa [5] = test: Antibacterial activity against non-ciprofloxacin-susceptible Pseudomonas aeruginosa assessed as percent susceptible isolates by CLSI M7-A7 method
# Citrobacter freundii [6] = test: Antibacterial activity against Citrobacter freundii assessed as percent susceptible isolates by CLSI M7-A7 method
# [7] = tested on: Stenotrophomonas maltophilia; test: Antibacterial activity against non-levofloxacin susceptible Stenotrophomonas maltophilia by CLSI M7-A7 method
# Klebsiella aerogenes [8] = test: Antibacterial activity against Enterobacter aerogenes by CLSI M7-A7 method
# Proteus vulgaris [9] = test: Antibacterial activity against Proteus vulgaris assessed as percent susceptible isolates by CLSI M7-A7 method
# Proteus mirabilis [10] = test: Antibacterial activity against Proteus mirabilis assessed as percent susceptible isolates by CLSI M7-A7 method
# [11] = tested on: Stenotrophomonas maltophilia; test: Antibacterial activity against levofloxacin-susceptible Stenotrophomonas maltophilia by CLSI M7-A7 method
# Klebsiella aerogenes [12] = test: Antibacterial activity against Enterobacter aerogenes assessed as percent susceptible isolates by CLSI M7-A7 method
# Pseudomonas aeruginosa [13] = test: Antibacterial activity against ciprofloxacin-susceptible Pseudomonas aeruginosa assessed as percent susceptible isolates by CLSI M7-A7 method
# [14] = tested on: Acinetobacter calcoaceticus; test: Antibacterial activity against Acinetobacter calcoaceticus assessed as percent susceptible isolates by CLSI M7-A7 method
# Acinetobacter lwoffii [15] = test: Antibacterial activity against Acinetobacter lwoffii assessed as percent susceptible isolates by CLSI M7-A7 method
# [16] = tested on: Stenotrophomonas maltophilia; test: Antibacterial activity against levofloxacin-susceptible Stenotrophomonas maltophilia assessed as assessed as percent susceptible isolates by CLSI M7-A7 method
# Proteus mirabilis [17] = test: Antibacterial activity against Proteus mirabilis by CLSI M7-A7 method
# Enterobacter cloacae [18] = test: Antibacterial activity against Enterobacter cloacae assessed as percent susceptible isolates by CLSI M7-A7 method
# Pseudomonas aeruginosa [19] = test: Antibacterial activity against non-ciprofloxacin-susceptible Pseudomonas aeruginosa by CLSI M7-A7 method
# Citrobacter freundii [20] = test: Antibacterial activity against Citrobacter freundii by CLSI M7-A7 method
# Pseudomonas aeruginosa [21] = test: Antibacterial activity against ciprofloxacin-susceptible Pseudomonas aeruginosa by CLSI M7-A7 method
# [22] = tested on: Stenotrophomonas maltophilia; test: Antibacterial activity against non-levofloxacin susceptible Stenotrophomonas maltophilia assessed as percent susceptible isolates by CLSI M7-A7 method
# Acinetobacter baumannii [23] = test: Antibacterial activity against Acinetobacter baumannii by CLSI M7-A7 method
# Enterobacter cloacae [24] = test: Antibacterial activity against Enterobacter cloacae by CLSI M7-A7 method
# Serratia marcescens [25] = test: Antibacterial activity against levofloxacin susceptible Serratia marcescens assessed as percent susceptible isolates by CLSI M7-A7 method
# Acinetobacter lwoffii [26] = test: Antibacterial activity against Acinetobacter lwoffii by CLSI M7-A7 method
# Proteus vulgaris [27] = test: Antibacterial activity against Proteus vulgaris by CLSI M7-A7 method
# Klebsiella pneumoniae [28] = test: Antibacterial activity against Klebsiella pneumoniae assessed as percent susceptible isolates by CLSI M7-A7 method
# Klebsiella oxytoca [29] = test: Antibacterial activity against Klebsiella oxytoca by CLSI M7-A7 method
# Morganella morganii [30] = test: Antibacterial activity against Morganella morganii by CLSI M7-A7 method
# Citrobacter koseri [31] = test: Antibacterial activity against Citrobacter koseri assessed as percent susceptible isolates by CLSI M7-A7 method
# Citrobacter koseri [32] = test: Antibacterial activity against Citrobacter koseri by CLSI M7-A7 method
# Morganella morganii [33] = test: Antibacterial activity against Morganella morganii assessed as percent susceptible isolates by CLSI M7-A7 method
# Klebsiella oxytoca [34] = test: Antibacterial activity against Klebsiella oxytoca assessed as percent susceptible isolates by CLSI M7-A7 method
# Bacteroides fragilis [35] = test: Antibacterial activity against Bacteroides fragilis assessed as percent susceptible isolates by CLSI M11-A7 method
# Prevotella sp. [36] = test: Antibacterial activity against Prevotella sp. by CLSI M11-A7 method
# Cutibacterium acnes [37] = test: Antibacterial activity against Propionibacterium acnes assessed as percent susceptible isolates by CLSI M11-A7 method
# Clostridium perfringens = test: Antibacterial activity against Clostridium perfringens by CLSI M11-A7 method
# Bacteroides fragilis [38] = test: Antibacterial activity against Bacteroides fragilis by CLSI M11-A7 method
# Peptostreptococcus sp. [39] = test: Antibacterial activity against Peptostreptococcus sp. assessed as percent susceptible isolates by CLSI M11-A7 method
# Fusobacterium sp. [40] = test: Antibacterial activity against Fusobacterium sp. assessed as percent susceptible isolates by CLSI M11-A7 method
# Peptostreptococcus sp. [41] = test: Antibacterial activity against Peptostreptococcus sp. by CLSI M11-A7 method
# Fusobacterium sp. [42] = test: Antibacterial activity against Fusobacterium sp. by CLSI M11-A7 method
# Prevotella sp. [43] = test: Antibacterial activity against Prevotella sp. assessed as percent susceptible isolates by CLSI M11-A7 method
# Cutibacterium acnes [44] = test: Antibacterial activity against Propionibacterium acnes by CLSI M11-A7 method
smiles,measurement,setting,value
C[C@@H](O)[C@H]1C(=O)N2C(C(=O)O)=C(SCCNC=N)C[C@H]12 [IMIPENEM ANHYDROUS],MIC50,Serratia marcescens [1],2 µg/mL
same,MIC90,Serratia marcescens [1],4 µg/mL
same,MIC50,[2],1 µg/mL
same,MIC90,[2],> 64 µg/mL
same,MIC50,Klebsiella pneumoniae [3],0.25 µg/mL
same,MIC90,Klebsiella pneumoniae [3],0.5 µg/mL
same,Activity,Acinetobacter baumannii [4],54.7%
same,Activity,Pseudomonas aeruginosa [5],64.6%
same,Activity,Citrobacter freundii [6],87%
same,MIC,[7],1 µg/mL
same,MIC50,Klebsiella aerogenes [8],0.5 µg/mL
same,MIC90,Klebsiella aerogenes [8],1 µg/mL
same,Activity,Proteus vulgaris [9],98%
same,Activity,Proteus mirabilis [10],92%
same,MIC,[11],0.25 µg/mL
same,Activity,Klebsiella aerogenes [12],88%
same,Activity,Pseudomonas aeruginosa [13],97.1%
same,Activity,[14],77.8%
same,Activity,Acinetobacter lwoffii [15],86%
same,Activity,[16],38.5%
same,MIC50,Proteus mirabilis [17],1 µg/mL
same,MIC90,Proteus mirabilis [17],2 µg/mL
same,Activity,Enterobacter cloacae [18],88%
same,MIC50,Pseudomonas aeruginosa [19],1 µg/mL
same,MIC90,Pseudomonas aeruginosa [19],> 64 µg/mL
same,MIC50,Citrobacter freundii [20],0.5 µg/mL
same,MIC90,Citrobacter freundii [20],8 µg/mL
same,MIC50,Pseudomonas aeruginosa [21],0.5 µg/mL
same,MIC90,Pseudomonas aeruginosa [21],1 µg/mL
same,Activity,[22],22.9%
same,MIC50,Acinetobacter baumannii [23],2 µg/mL
same,MIC90,Acinetobacter baumannii [23],> 8 µg/mL
same,MIC50,Enterobacter cloacae [24],0.5 µg/mL
same,MIC90,Enterobacter cloacae [24],8 µg/mL
same,Activity,Serratia marcescens [25],91%
same,MIC50,Acinetobacter lwoffii [26],0.25 µg/mL
same,MIC90,Acinetobacter lwoffii [26],8 µg/mL
same,MIC50,Proteus vulgaris [27],1 µg/mL
same,MIC90,Proteus vulgaris [27],2 µg/mL
same,Activity,Klebsiella pneumoniae [28],93%
CC(C)(O/N=C(\C(=O)N[C@@H]1C(=O)N2C(C(=O)[O-])=C(C[n+]3ccccc3)CS[C@H]12)c1csc(N)n1)C(=O)O [CEFTAZIDIME],MIC50,Serratia marcescens [1],0.06 µg/mL
same,MIC90,Serratia marcescens [1],0.5 µg/mL
same,MIC50,Klebsiella oxytoca [29],0.12 µg/mL
same,MIC90,Klebsiella oxytoca [29],0.5 µg/mL
same,MIC50,[2],4 µg/mL
same,MIC90,[2],> 16 µg/mL
same,MIC50,Klebsiella pneumoniae [3],0.12 µg/mL
same,MIC90,Klebsiella pneumoniae [3],1 µg/mL
same,MIC50,Morganella morganii [30],0.12 µg/mL
same,MIC90,Morganella morganii [30],16 µg/mL
same,Activity,Citrobacter koseri [31],100%
same,Activity,Acinetobacter baumannii [4],39.6%
same,Activity,Pseudomonas aeruginosa [5],57.3%
same,Activity,Citrobacter freundii [6],78%
same,MIC,[7],0.5 µg/mL
same,MIC50,Klebsiella aerogenes [8],2 µg/mL
same,MIC90,Klebsiella aerogenes [8],> 16 µg/mL
same,Activity,Proteus vulgaris [9],100%
same,Activity,Proteus mirabilis [10],98%
same,MIC,[11],0.5 µg/mL
same,Activity,Klebsiella aerogenes [12],62%
same,MIC50,Citrobacter koseri [32],0.12 µg/mL
same,MIC90,Citrobacter koseri [32],0.5 µg/mL
same,Activity,Pseudomonas aeruginosa [13],93.3%
same,Activity,[14],63%
same,Activity,Acinetobacter lwoffii [15],76%
same,Activity,[16],32.7%
same,MIC,Proteus mirabilis [17],≤ 0.03 µg/mL
same,MIC50,Proteus mirabilis [17],≤ 0.03 µg/mL
same,MIC90,Proteus mirabilis [17],0.06 µg/mL
same,Activity,Morganella morganii [33],82.4%
same,Activity,Enterobacter cloacae [18],70%
same,MIC50,Pseudomonas aeruginosa [19],4 µg/mL
same,MIC90,Pseudomonas aeruginosa [19],> 16 µg/mL
same,MIC50,Citrobacter freundii [20],0.25 µg/mL
same,MIC90,Citrobacter freundii [20],> 16 µg/mL
same,MIC50,Pseudomonas aeruginosa [21],2 µg/mL
same,MIC90,Pseudomonas aeruginosa [21],8 µg/mL
same,Activity,[22],43.8%
same,MIC50,Acinetobacter baumannii [23],> 16 µg/mL
same,MIC90,Acinetobacter baumannii [23],> 16 µg/mL
same,MIC50,Enterobacter cloacae [24],0.5 µg/mL
same,MIC90,Enterobacter cloacae [24],> 16 µg/mL
same,Activity,Serratia marcescens [25],93%
same,Activity,Klebsiella oxytoca [34],100%
same,MIC50,Acinetobacter lwoffii [26],2 µg/mL
same,MIC90,Acinetobacter lwoffii [26],> 16 µg/mL
same,MIC50,Proteus vulgaris [27],0.06 µg/mL
same,MIC90,Proteus vulgaris [27],0.12 µg/mL
same,Activity,Klebsiella pneumoniae [28],92%
Cc1ncc([N+](=O)[O-])n1CCO [METRONIDAZOLE],Activity,Bacteroides fragilis [35],100%
same,MIC50,Prevotella sp. [36],4 µg/mL
same,MIC90,Prevotella sp. [36],4 µg/mL
same,Activity,Cutibacterium acnes [37],0%
same,MIC50,Clostridium perfringens,2 µg/mL
same,MIC90,Clostridium perfringens,4 µg/mL
same,MIC,Bacteroides fragilis [38],2 µg/mL
same,MIC50,Bacteroides fragilis [38],2 µg/mL
same,MIC90,Bacteroides fragilis [38],2 µg/mL
same,Activity,Peptostreptococcus sp. [39],98.1%
same,Activity,Fusobacterium sp. [40],100%
same,MIC50,Peptostreptococcus sp. [41],0.5 µg/mL
same,MIC90,Peptostreptococcus sp. [41],1 µg/mL
same,MIC50,Fusobacterium sp. [42],0.25 µg/mL
same,MIC90,Fusobacterium sp. [42],1 µg/mL
same,Activity,Prevotella sp. [43],100%
same,MIC,Cutibacterium acnes [44],> 16 µg/mL
same,MIC50,Cutibacterium acnes [44],> 16 µg/mL
same,MIC90,Cutibacterium acnes [44],> 16 µg/mL

# Source: ChEMBL document CHEMBL1649565, “Besifloxacin, a novel fluoroquinolone, has broad-spectrum in vitro activity against aerobic and anaerobic bacteria” (Antimicrob Agents Chemother, 2009)
